# Assay: Inhibition of RNA polymerase of Bacteria
row,SMILES,IC50 [nM]
1,C/C=C/C/C=C(\C)C(O)CC/C(C)=C/C=C(\C)C(=O)c1c(O)cc([C@H](C)CC/C=C/NC(=O)OC)oc1=O (stereo partly drawn) [CORALLOPYRONIN A],4000
2,CCC/C(C)=C/C=C(\C)C(=O)c1c(O)cc([C@H](C)CC/C=C/NC(=O)OC)oc1=O [MYXOPORIN A],1000
3,C/C(=C\Cc1ccccc1)CCC(=O)C[C@H]1C[C@H](O)C/C(C)=C/C/C=C/C/C(CC(=O)O)=C\C(=O)O1 [RIPOSTATIN],800

# Reference: ChEMBL document CHEMBL3046384, “Pharmacophore modeling and structure-based virtual screening for a novel switch region target of bacterial RNA polymerase” (Med Chem Res, 2012)
